In the NIST ThermoML archive (doi:10.1021/je200721d):

Experiment: xn = mol fraction of the nth substance listed
Conditions: Liquid, Vibrating tube method

CCCCCCCCCC [decane] + CCCCCC
Conditions | mass density [kg/m3]
332.93 K, 7000 kPa, x2 = 0.8991 | 643.52
332.93 K, 8000 kPa, x2 = 0.8991 | 644.74
332.93 K, 9000 kPa, x2 = 0.8991 | 645.94
332.93 K, 10000 kPa, x2 = 0.8991 | 647.14
332.93 K, 11000 kPa, x2 = 0.8991 | 648.32
332.93 K, 12000 kPa, x2 = 0.8991 | 649.47
332.93 K, 13000 kPa, x2 = 0.8991 | 650.61
332.93 K, 14000 kPa, x2 = 0.8991 | 651.73
332.93 K, 15000 kPa, x2 = 0.8991 | 652.84
332.93 K, 16000 kPa, x2 = 0.8991 | 653.92
332.93 K, 17000 kPa, x2 = 0.8991 | 654.97
332.93 K, 18000 kPa, x2 = 0.8991 | 655.99
332.93 K, 19000 kPa, x2 = 0.8991 | 657.01
332.93 K, 20000 kPa, x2 = 0.8991 | 657.98
332.93 K, 21000 kPa, x2 = 0.8991 | 658.93
332.93 K, 22000 kPa, x2 = 0.8991 | 659.86
332.93 K, 23000 kPa, x2 = 0.8991 | 660.76
332.93 K, 24000 kPa, x2 = 0.8991 | 661.64
332.93 K, 25000 kPa, x2 = 0.8991 | 662.49
333.08 K, 1000 kPa, x2 = 0.2185 | 689.16
333.08 K, 2000 kPa, x2 = 0.2185 | 690.17
333.08 K, 3000 kPa, x2 = 0.2185 | 691.16
333.08 K, 4000 kPa, x2 = 0.2185 | 692.16
333.08 K, 5000 kPa, x2 = 0.2185 | 693.16
333.08 K, 6000 kPa, x2 = 0.2185 | 694.13
333.08 K, 7000 kPa, x2 = 0.2185 | 695.1
333.08 K, 8000 kPa, x2 = 0.2185 | 696.06
333.08 K, 9000 kPa, x2 = 0.2185 | 697.02
333.08 K, 10000 kPa, x2 = 0.2185 | 697.94
333.08 K, 10990 kPa, x2 = 0.2185 | 698.86
333.08 K, 12000 kPa, x2 = 0.2185 | 699.77
333.08 K, 13000 kPa, x2 = 0.2185 | 700.66
333.08 K, 14000 kPa, x2 = 0.2185 | 701.54
333.08 K, 15000 kPa, x2 = 0.2185 | 702.39
333.08 K, 16000 kPa, x2 = 0.2185 | 703.25
333.08 K, 17000 kPa, x2 = 0.2185 | 704.09
333.08 K, 18000 kPa, x2 = 0.2185 | 704.93
333.08 K, 19000 kPa, x2 = 0.2185 | 705.76
333.08 K, 20000 kPa, x2 = 0.2185 | 706.56
333.08 K, 21000 kPa, x2 = 0.2185 | 707.37
333.08 K, 22000 kPa, x2 = 0.2185 | 708.17
333.08 K, 23000 kPa, x2 = 0.2185 | 708.95
333.08 K, 24000 kPa, x2 = 0.2185 | 709.72
333.08 K, 25000 kPa, x2 = 0.2185 | 710.48
333.1 K, 1000 kPa, x2 = 0.7524 | 650.65
333.1 K, 2000 kPa, x2 = 0.7524 | 651.99
333.1 K, 3000 kPa, x2 = 0.7524 | 653.29
333.1 K, 4000 kPa, x2 = 0.7524 | 654.52
333.1 K, 5000 kPa, x2 = 0.7524 | 655.72
333.1 K, 6000 kPa, x2 = 0.7524 | 656.92
333.1 K, 7000 kPa, x2 = 0.7524 | 658.07
333.1 K, 8000 kPa, x2 = 0.7524 | 659.21
333.1 K, 9000 kPa, x2 = 0.7524 | 660.35
333.1 K, 10000 kPa, x2 = 0.7524 | 661.46
333.1 K, 10990 kPa, x2 = 0.7524 | 662.52
333.1 K, 12000 kPa, x2 = 0.7524 | 663.6
333.1 K, 13000 kPa, x2 = 0.7524 | 664.65
333.1 K, 14000 kPa, x2 = 0.7524 | 665.67
333.1 K, 15000 kPa, x2 = 0.7524 | 666.7
333.1 K, 16000 kPa, x2 = 0.7524 | 667.68
333.1 K, 17000 kPa, x2 = 0.7524 | 668.66
333.1 K, 18000 kPa, x2 = 0.7524 | 669.62
333.1 K, 19000 kPa, x2 = 0.7524 | 670.59
333.1 K, 20000 kPa, x2 = 0.7524 | 671.52
333.1 K, 21000 kPa, x2 = 0.7524 | 672.45
333.1 K, 22000 kPa, x2 = 0.7524 | 673.35
333.1 K, 23000 kPa, x2 = 0.7524 | 674.23
333.1 K, 24000 kPa, x2 = 0.7524 | 675.08
333.1 K, 25000 kPa, x2 = 0.7524 | 675.91
333.12 K, 1000 kPa, x2 = 0.0456 | 697.88
333.12 K, 2000 kPa, x2 = 0.0456 | 698.9
333.12 K, 3000 kPa, x2 = 0.0456 | 699.91
333.12 K, 4000 kPa, x2 = 0.0456 | 700.9
333.12 K, 5000 kPa, x2 = 0.0456 | 701.88
333.12 K, 6000 kPa, x2 = 0.0456 | 702.84
333.12 K, 7000 kPa, x2 = 0.0456 | 703.78
333.12 K, 8000 kPa, x2 = 0.0456 | 704.71
333.12 K, 9000 kPa, x2 = 0.0456 | 705.63
333.12 K, 10000 kPa, x2 = 0.0456 | 706.54
333.12 K, 10990 kPa, x2 = 0.0456 | 707.42
333.12 K, 12000 kPa, x2 = 0.0456 | 708.3
333.12 K, 13000 kPa, x2 = 0.0456 | 709.16
333.12 K, 14000 kPa, x2 = 0.0456 | 710.01
333.12 K, 15000 kPa, x2 = 0.0456 | 710.86
333.12 K, 16000 kPa, x2 = 0.0456 | 711.67
333.12 K, 17000 kPa, x2 = 0.0456 | 712.48
333.12 K, 18000 kPa, x2 = 0.0456 | 713.29
333.12 K, 19000 kPa, x2 = 0.0456 | 714.08
333.12 K, 20000 kPa, x2 = 0.0456 | 714.87
333.12 K, 21000 kPa, x2 = 0.0456 | 715.64
333.12 K, 22000 kPa, x2 = 0.0456 | 716.39
333.12 K, 23000 kPa, x2 = 0.0456 | 717.15
333.12 K, 24000 kPa, x2 = 0.0456 | 717.89
333.12 K, 25000 kPa, x2 = 0.0456 | 718.63
